Experimental findings from the METLIN SMRT retention time set (Domingo-Almenara et al. 2019) are described below.

The series in a line: gradient 5% acetonitrile 3 min, to 50% in 2 min, to 85% in 15 min, held 3 min, 100 µL/min. The note with it: column: Zorbax Extend-C18 2.1 x 50 mm; eluents: water / acetonitrile, 0.1% formic acid. The essentials: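 Mixtures of ~100 pure standards were chromatographed on a Zorbax Extend-C18 column (2.1 × 50 mm, 1.8 μm) at 100 μL/min using water and acetonitrile, each with 0.1% formic acid. Detection used a quadrupole time-of-flight mass spectrometer in positive and negative ionization mode, and data collection spanned 3 months. Retention time was obtained from adduct peaks picked computationally and each checked manually.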
`Cc1ccc(NC(=O)N2CCc3c(c(-c4nnc(-c5ccc(F)cc5)o4)nn3C)C2)cc1Cl` returned an RP-LC retention time of 1010 s. The value for `Cc1ccc(-n2c(N3CCCC(C(=O)Nc4ccc(Cl)cc4)C3)nc3ccsc3c2=O)cc1` (centres undefined) was 1080 s; that for `N#CC[C@@H](C1CCCC1)n1cc(-c2ncnc3[nH]ccc23)cn1` was 689 s. The value for `O=C(O)c1nnn(-c2ccc(C(F)(F)F)cc2)c1C(F)(F)F` was 824 s; that for `Cn1nc2n(c1=O)CCN(C(=O)c1ccsc1)CC2` was 570 s. The value for `Ic1ccc(N2CCN(Cc3c[nH]c4ncccc34)CC2)cc1` was 727 s; that for `O=C(CSc1nc(-c2cccc([N+](=O)[O-])c2)cs1)N1CCOCC1` was 756 s; that for `COc1cc(NC(=O)Cc2ccc(S(=O)(=O)C(C)C)cc2)c2ncccc2c1` was 827 s. As to `CCCc1noc(-c2ccc3nnc(CC(=O)Nc4ccc(Cl)cc4)n3c2)n1`, the RP-LC retention time is 937 s. The value for `CC(C)CNC(=O)c1ccc2c(c1)N(C)C(=O)CS2` was 708 s; that for `CCCC(=O)N1CCc2c(c(C(=O)NCc3ccc4c(c3)OCO4)nn2C)C1` was 728 s; that for `COc1ccc(OC)c(CNC(=O)C2CCN(S(=O)(=O)c3cn(C)cn3)CC2)c1` was 663 s. The value for `COc1cc(NC(=O)N2CCN(c3cc(C)nc(N4CCCCC4)n3)CC2)cc(OC)c1OC` was 669 s; that for `Cc1cnc(C(=O)NCC23CCC=C2N(C)C(=O)CC3)cn1` (centres undefined) was 666 s; that for `COc1ccc(C2Cn3nnc(-c4nc(-c5cccc(C)c5)no4)c3CO2)cc1` (centres undefined) was 1190 s. The value for `CN1C(=O)Cc2cc(C(=O)N3CCN(c4ccc(Cl)cc4)CC3)ccc21` was 813 s. `Cc1ccc2[nH]cc(CCNC(=O)CCn3c(=O)c(C)nc4ccccc43)c2c1`: the RP-LC retention time was 781 s. `COc1ccc(S(=O)(=O)Nc2ccc(-c3cn4ccc(C)nc4n3)cc2)cc1C` had an RP-LC retention time of 661 s. Regarding `CCCCCCCCc1ccc(CCC(N)(CO)CO)cc1`, the RP-LC retention time was found to be 966 s.

`CCOC(=O)c1noc2ncnc(NCc3cccc(Cl)c3)c12` yielded an RP-LC retention time of 1040 s.

`COc1cc(C2CC(=O)N(CC(=O)N3CCCCC3)c3ccccc3S2)cc(OC)c1OC` (centres undefined) displayed an RP-LC retention time of 871 s. In the case of `Cc1ccccc1CSc1nnc(-c2ccccc2Cl)o1`, the RP-LC retention time was found to be 1180 s. The value for `Cc1cc(OCC(=O)NCCN(C)C)cc(C)c1Cl` was 629 s; that for `CCn1nc(-c2nc(C(C)(C)C)no2)ccc1=O` was 883 s; that for `Cc1ccc(C)c(NC(=O)C2CCN(S(=O)(=O)c3cc(C(=O)N(C)C)cs3)CC2)c1` was 790 s. For `Cc1c(CC(=O)NCc2cccnc2)c(=O)n2nc(-c3ccccc3)nc2n1C` the value was 575 s. In the case of `OCCNCc1ccc(-c2cc(Cl)cc(Cl)c2)o1`, the RP-LC retention time was determined as 676 s. For `Cc1cc(S(=O)(=O)N(C)C2CCc3nn(CC4CC4)c(=O)n3CC2)ccc1Cl` (centres undefined) the value was 827 s; for `CCOC(=O)C1=C(C)NC2=C(C(=O)C(C(=O)OC)C(C)C2)C1c1ccc(F)cc1` (centres undefined), 870 s. For `COc1cc(-c2noc(CN3C(=O)COc4cc(C)ccc43)n2)cc(OC)c1OC` the value was 974 s; for `Cc1ccc(CNC(=O)N2CCC(c3cc(N)on3)CC2)cc1`, 692 s. The value for `Cc1nc(-c2cc3ccccc3nc2N2CCN(C(=O)Cc3ccccc3)CC2)no1` was 934 s. In the case of `O=C(NC1CC1)C1CCN(c2nc3ccsc3c(=O)n2Cc2ccccc2)CC1`, the RP-LC retention time stood at 741 s. For `Cc1nncn1C1CCN(S(=O)(=O)c2ccccc2F)CC1` the value was 654 s.
